Read-outs that look alike come from different tables or passages of the source.

This is an account of results in patent US10821115B2, “Compounds that inhibit Mcl-1 protein” (priority 2017, dated 2020).

Assay [1] concerns the target recombinant human Mcl-1 (residues 171-327) / Bim interaction (Homo sapiens (Human), UniProt Q07820). As to the kind of experiment: biochemical. The class given is binding. The settings on record: read-out: Mcl-1 HTRF IC50. On the technique in general: Time-resolved FRET reads energy transfer from a long-lived donor to a nearby acceptor.
The subject of assay [2] is human multiple myeloma cell line, OPM-2. The experiment in a line: Cell viability assay (OPM-2 10 FBS), CellTiter-Glo. The class given is cell-based. An outline of the steps: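 IC50 values come from 4-parameter logistic fits of luminescence signals reflecting cell viability. Treatment lasted 16 h at 37 °C in complete medium with 10% FBS, starting from 3000 cells/well.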
(In general: In ATP-based viability assays light output follows the ATP content of the culture.)

[3] abbreviates: TR-FRET, Mcl-1(171-327) / biotin-Bim (51-76).
Where [4] appears, read: Homo sapiens, OPM-2, 16 h, read-out: OPM-2 10% FBS IC50 IP, OPM-2 cells, 10% FBS, 16 h, CellTiter-Glo.
Where [5] appears, read: 0.1 nM Mcl-1(171-327), 0.05 nM biotin-Bim (51-76).
Setting [6] is: Homo sapiens, OPM-2, 16 h, read-out: OPM-2 10% FBS IC50 IP, OPM-2 cells, 10% FBS, 16 h incubation.

Sequence of recombinant human Mcl-1 (residues 171-327) / Bim interaction (Q07820 171-327): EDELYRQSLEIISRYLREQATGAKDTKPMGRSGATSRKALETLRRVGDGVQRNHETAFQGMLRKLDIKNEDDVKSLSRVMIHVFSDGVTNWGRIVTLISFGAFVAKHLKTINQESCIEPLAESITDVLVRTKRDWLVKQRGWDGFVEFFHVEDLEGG

Turning to `C[C@@H]1[C@@H](C)CCC[C@@](O)(CC(=O)N2CCC2)[C@@H]2CC[C@H]2CN2C[C@@]3(CCCc4cc(Cl)ccc43)COc3ccc(cc32)C(=O)NS1(=O)=O` [Example 100145, (1S,3′R,6′R,7′R,11′S,12′R)-7′-(2-(1-azetidinyl)-2-oxoethyl)-6-chloro-7′-hydroxy-11′,12′-dimethyl-3,4-dihydro-2H,15′H-spiro[naphthalene-1,22′-[20]oxa[13]thia[1,14]diazatetracyclo [14.7.2.0~3,6~.0~19,24~]pentacosa[16,18,24]trien]-15′-one 13′,13′-dioxide], the IC50 (commonly the midpoint of a concentration-inhibition curve) in assay [1] (setting [3]) came out at 0.357 nM; in assay [2] (read-out: OPM-2 10% FBS IC50 IP, OPM-2 cells, 10% FBS, 16 h, CellTiter-Glo) it was 945 nM.

Take `CO[C@@]1(c2cncc(CN(C)C)c2)/C=C/C[C@H](C)[C@@H](C)S(=O)(=O)NC(=O)c2ccc3c(c2)N(C[C@@H]2CC[C@H]21)C[C@@]1(CCCc2cc(Cl)ccc21)CO3` [Example 100554, (1S,3′R,6′R,7′S,8′E,11′S,12′R)-6-chloro-7′-(5-((dimethylamino)methyl)-3-pyridinyl)-7′-methoxy-11′,12′-dimethyl-3,4-dihydro-2H,15′H-spiro[naphthalene-1,22′-[20]oxa[13]thia[1,14]diazatetracyclo [14.7.2.0~3,6~.0~19,24~]pentacosa[8,16,18,24]tetraen]-15′-one 13′,13′-dioxide]: the concentration for half-maximal inhibition (IC50) came to 0.231 nM in assay [1] (setting [3]) and 519 nM in assay [2] (setting [4]).

With `C[C@@H]1[C@@H](C)C/C=C/[C@]2(CNC(=O)O2)[C@@H]2CC[C@H]2CN2C[C@@]3(CCCc4cc(Cl)ccc43)COc3ccc(cc32)C(=O)NS1(=O)=O` (single isomer, unassigned) [Example 128], the IC50 in assay [1] (setting [5]) was 0.256 nM; in assay [2] (read-out: OPM-2 10% FBS IC50 IP, OPM-2 cells, 10% FBS, 16 h incubation), 19600 nM.

`CO[C@@]1(CN2CCN(C3CS(=O)(=O)C3)CC2)/C=C/C[C@H](C)[C@@H](C)S(=O)(=O)NC(=O)c2ccc3c(c2)N(C[C@@H]2CC[C@H]21)C[C@@]1(CCCc2cc(Cl)ccc21)CO3` [Example 339, (1S,3′R,6′R,7′S,8′E,11′S,12′R)-6-chloro-7′-((4-(1,1-dioxido-3-thietanyl)-1-piperazinyl)methyl)-7′-methoxy-11′,12′-dimethyl-3,4-dihydro-2H,15′H-spiro[naphthalene-1,22′-[20]oxa[13]thia[1,14]diazatetracyclo [14.7.2.0~3,6~.0~19,24~]pentacosa[8,16,18,24]tetraen]-15′-one 13′,13′-dioxide]: the IC50 was 0.117 nM in assay [1] (setting [5]) and 153 nM in assay [2] (setting [6]).

In the case of `COC[C@@H]1[C@@H](C)C/C=C/[C@](CN2CCN(C(C)(C)C)CC2)(OC)[C@@H]2CC[C@H]2CN2C[C@@]3(CCCc4cc(Cl)ccc43)COc3ccc(cc32)C(=O)NS1(=O)=O` [Example 174, (1S,3′R,6′R,7′S,8′E,11′S,12′S)-7′-((4-tert-butyl-1-piperazinyl)methyl)-6-chloro-7′-methoxy-12′-(methoxymethyl)-11′-methyl-3,4-dihydro-2H,15′H-spiro[naphthalene-1,22′-[20]oxa[13]thia[1,14]diazatetracyclo [14.7.2.0~3,6~.0~19,24~]pentacosa[8,16,18,24]tetraen]-15′-one 13′,13′-dioxide], the IC50 in assay [1] (setting [5]) came out at 0.322 nM; in assay [2] (setting [6]), 639 nM.

On to `C[C@@H]1[C@@H](C)C/C=C/[C@]2(CN(CC3CCOCC3)CCO2)[C@@H]2CC[C@H]2CN2C[C@@]3(CCCc4cc(Cl)ccc43)COc3ccc(cc32)C(=O)NS1(=O)=O` [Example 135, (1S,3′R,6′R,7′R,8′E,11′S,12′R)-6-chloro-11′,12′-dimethyl-4″- (tetrahydro-2H-pyran-4-ylmethyl)-3,4-dihydro-2H,15′H-dispiro[naphthalene-1,22′-[20]oxa[13]thia[1,14]diazatetracyclo [14.7.2.0~3,6~.0~19,24~]pentacosa[8,16,18,24]tetraene-7′,2″-[1,4]oxazinan]-15′-one 13′,13′-dioxide], for which the values for the half-maximal inhibitory concentration (IC50) in assay [1] (setting [5]) and in assay [2] (setting [6]) were 8.18 nM and above 33300 nM, respectively.

As to `CO[C@]1(CC(=O)C(C)C)/C=C/C[C@H](C)[C@@H](C)S(=O)(=O)NC(=O)c2ccc3c(c2)N(C[C@@H]2CC[C@H]21)C[C@@]1(CCCc2cc(Cl)ccc21)CO3` [Example 100363, (1S,3′R,6′R,7′R,8′E,11′S,12′R)-6-chloro-7′-methoxy-11′,12′-dimethyl-7′-(3-methyl-2-oxobutyl)-3,4-dihydro-2H,15′H-spiro[naphthalene-1,22′-[20]oxa[13]thia[1,14]diazatetracyclo [14.7.2.0~3,6~.0~19,24~]pentacosa[8,16,18,24]tetraen]-15′-one 13′,13′-dioxide], the IC50 worked out at 1.38 nM in assay [1] and 3810 nM in assay [2] (setting [4]).

On to `CC[C@@H]1CCCC[C@@]2(COCC(=O)O2)[C@@H]2CC[C@H]2CN2C[C@@]3(CCCc4cc(Cl)ccc43)COc3ccc(cc32)C(=O)NS1(=O)=O` [Example 100043, (2S,3′R,6′R,12′R,22′S)-6″-chloro-12′-ethyl-3″,4″-dihydro-2″H,6H,15′H-dispiro[1,4-dioxane-2,7′-[20]oxa[13]thia[1,14]diazatetracyclo [14.7.2.0~3,6~.0~19,24~]pentacosa[16,18,24]triene-22′,1″-naphthalene]-6,15′-dione 13′,13′-dioxide], for which the IC50 in assay [1] (setting [3]) was found to be 1.67 nM; in assay [2] (setting [4]) it was 7280 nM.

Regarding `CO[C@@]1(CN2CCN(c3ccccc3)CC2)/C=C/C[C@H](C)[C@@H](C)S(=O)(=O)NC(=O)c2ccc3c(c2)N(C[C@@H]2CC[C@H]21)C[C@@]1(CCCc2cc(Cl)ccc21)CO3` [Example 251, (1S,3′R,6′R,7′S,8′E,11′S,12′R)-6-chloro-7′-methoxy-11′,12′-dimethyl-7′-((4-phenyl-1-piperazinyl)methyl)-3,4-dihydro-2H,15′H-spiro[naphthalene-1,22′-[20]oxa[13]thia[1,14]diazatetracyclo [14.7.2.0~3,6~.0~19,24~]pentacosa[8,16,18,24]tetraen]-15′-one 13′,13′-dioxide], the IC50 is 2.26 nM in assay [1] (setting [5]) and 3870 nM in assay [2] (setting [6]).

On to `CO[C@@]1(CN2CCN(c3ccncc3)CC2)/C=C/C[C@H](C)[C@@H](C)S(=O)(=O)NC(=O)c2ccc3c(c2)N(C[C@@H]2CC[C@H]21)C[C@@]1(CCCc2cc(Cl)ccc21)CO3` [Example 254, (1S,3′R,6′R,7′S,8′E,11′S,12′R)-6-chloro-7′-methoxy-11′,12′-dimethyl-7′-((4-(4-pyridinyl)-1-piperazinyl)methyl)-3,4-dihydro-2H,15′H-spiro[naphthalene-1,22′-[20]oxa[13]thia[1,14]diazatetracyclo [14.7.2.0~3,6~.0~19,24~]pentacosa[8,16,18,24]tetraen]-15′-one 13′,13′-dioxide], for which the IC50 is 1.2 nM in assay [1] (setting [5]) and 544 nM in assay [2] (setting [6]).

`C[C@@H]1[C@@H](C)C/C=C/[C@]2(CN(Cc3cccnc3)CCO2)[C@@H]2CC[C@H]2CN2C[C@@]3(CCCc4cc(Cl)ccc43)COc3ccc(cc32)C(=O)NS1(=O)=O` [Example 137, (1S,3′R,6′R,7′R,8′E,11′S,12′R)-6-chloro-11′,12′-dimethyl-4″- (3-pyridinylmethyl)-3,4-dihydro-2H,15′H-dispiro[naphthalene-1,22′-[20]oxa[13]thia[1,14]diazatetracyclo [14.7.2.0~3,6~.0~19,24~]pentacosa[8,16,18,24]tetraene-7′,2″-[1,4]oxazinan]-15′-one 13′,13′-dioxide]: the values for the 50% inhibitory concentration (IC50) in assay [1] (setting [5]) and in assay [2] (setting [6]) were 4.74 nM and 1150 nM, respectively.

As for `C[C@@H]1[C@@H](C)C/C=C/[C@@](O)(C=O)[C@@H]2CC[C@H]2CN2C[C@@]3(CCCc4cc(Cl)ccc43)COc3ccc(cc32)C(=O)NS1(=O)=O` [Example 100291, (1S,3′R,6′R,7′S,8′E,11′S,12′R)-6-chloro-7′-hydroxy-11′,12′-dimethyl-15′-oxo-3,4-dihydro-2H-spiro[naphthalene-1,22′-[20]oxa[13]thia[1,14]diazatetracyclo [14.7.2.0~3,6~.0~19,24~]pentacosa[8,16,18,24]tetraene]-7′-carbaldehyde 13′,13′-dioxide], the IC50 in assay [1] (setting [3]) came out at 0.137 nM; in assay [2] (setting [4]) it was 281 nM.

On to `CO[C@]1(CN2CCN3CCCC[C@@H]3C2)/C=C/C[C@H](C)[C@@H](C)S(=O)(=O)NC(=O)c2ccc3c(n2)N(C[C@@H]2CC[C@H]21)C[C@@]1(CCCc2cc(Cl)ccc21)CO3` [Example 186, (1S,3′R,6′R,7′R,8′E,11′S,12′R)-6-chloro-7′-methoxy-11′,12′-dimethyl-7′-((9aR)-octahydro-2H-pyrido[1,2-a]pyrazin-2-ylmethyl)-3,4-dihydro-2H,15′H-spiro[naphthalene-1,22′-[20]oxa[13]thia[1,14,25]triazatetracyclo [14.7.2.0~3,6~.0~19,24~]pentacosa[8,16,18,24]tetraen]-15′-one 13′,13′-dioxide], for which the IC50 in assay [1] (setting [5]) amounted to 0.255 nM; in assay [2] (setting [6]) it was 431 nM.

`CCN1CCN(C[C@@]2(OC)/C=C/C[C@H](C)[C@@H](C)S(=O)(=O)NC(=O)c3ccc4c(c3)N(C[C@@H]3CC[C@H]32)C[C@@]2(CCCc3cc(Cl)ccc32)CO4)CC1` [Example 88, (1S,3′R,6′R,7′R,8′E,11′S,12′R)-6-chloro-7′-((4-ethyl-1-piperazinyl)methyl)-7′-methoxy-11′,12′-dimethyl-3,4-dihydro-2H,15′H-spiro[naphthalene-1,22′-[20]oxa[13]thia[1,14]diazatetracyclo [14.7.2.0~3,6~.0~19,24~]pentacosa[8,16,18,24]tetraen]-15′-one 13′,13′-dioxide]: the IC50 in assay [1] (setting [5]) is 0.139 nM; in assay [2] (setting [6]), 74 nM.
